# Experimental data reported in ChEMBL document CHEMBL1127844, “Molecular structures and conformational studies of triarylcyclopropyl and related nonsteroidal antiestrogens” (J Med Chem, 1994).
# Tested on: MCF7
# Experiment: Percent inhibition of estrogen receptor positive MCF-7 human breast cancer cell proliferation at 10e-7 M
# Assay type: functional
row,Structure (SMILES),inhibition at 0.1 µM
1,COc1ccc(C2C(Cl)(Cl)C2(c2ccc(OC)cc2)c2ccc(OCc3ccccc3)cc2)cc1 (configuration not stated),35%
2,COc1ccc(C2(c3ccc(OCc4ccccc4)cc3)C(c3ccccc3)C2(Cl)Cl)cc1 (configuration not stated),46%
3,COc1ccc(C2(c3ccccc3)C(c3ccccc3)C2(Cl)Cl)cc1 (configuration not stated),35%
4,COc1ccc(C2(c3ccc(OCCN(C)C)cc3)C(c3ccccc3)C2(Cl)Cl)cc1 (configuration not stated),35%
5,CN(C)CCOc1ccc(C2(c3ccccc3)C(c3ccccc3)C2(Cl)Cl)cc1 (configuration not stated),41%
6,CC/C(=C(\c1ccccc1)c1ccc(OCCN(C)C)cc1)c1ccccc1 [TAMOXIFEN],52%
7,ClC1(Cl)C(c2ccccc2)C1c1ccccc1 (configuration not stated),60%
